{"source": "patent US20160346249A1", "about": "(priority 2012, published 2016)", "key": {"[1]": {"experiment": "Single dose 300 mg / 450 mg pharmacokinetic, safety and tolerability study in healthy male and female subjects", "conditions": "for concentration at 3 h / concentration at 4 h / concentration at 6 h / concentration at 8 h / concentration at 10 h / concentration at 12 h / concentration at 18 h / concentration at 24 h / concentration at […] / half-life / AUC(0-t) / Cmax / Tmax / concentration at 0 h / concentration at 0.5 h / concentration at 1 h / concentration at 2 h: plasma, po; for Percent of Dose in Urine (0-24 hr) / Ratio DOV 216,298/DOV 21,947 in urine (0-24 hr): Mean (SD)", "excerpt": "Fourteen subjects, divided equally between males and females, were enrolled in the study and randomized between test article (5/sex) and placebo (2/sex). […] All subjects met the inclusion and exclusion criteria for entry into the study as detailed in the protocol and signed an informed consent form.\nThe subjects were confined to the clinical study site from Day −1 to the morning of Day 2, when they underwent a brief physical examination, clinical laboratory tests, and a physician visit before they were discharged. On Day 7, they reported to the clinical site again and were confined to the site until the morning of Day 9. At that time, they underwent a complete physical examination, clinical laboratory tests, and a physician's visit before they were discharged from the study. All subjects were fasted overnight on Days −1 and 7 from approximately 22:00 to approximately 4 hours post-dose on Days 1 and 8, at which time they received a standard lunch.\nSubjects that received the placebo (2/sex) ingested six identical looking capsules with no drug. […] Capsules on both days were ingested with 240 mL water. […] Samples were collected into lithium heparin-containing Vacutainers® and centrifuged at approximately 3000 rpm to obtain the plasma fraction. The plasma was split into two polypropylene tubes and stored at −20° C. […] The urine volumes were recorded and an aliquot was stored for drug concentration measurements.\nValidated LC/MS/MS assays were used for analyses; the assay range for both analytes in plasma and urine were 5.00 to 2000 ng/mL.\nPlasma concentration-time data for each subject were analyzed with WinNonlin, version 4.1 (Pharsight Corporation, Mountain View, Calif.) using a non-compartmental model. […] Plasma concentrations listed as not detected (ND) or below the lower limit of quantitation (LLOQ) were set to zero. The values of Cmax and Tmax were the observed values for each subject. AUC0-t was determined using the linear trapezoidal rule whenever the concentration data were increasing and the logarithmic trapezoidal rule any time that the concentration data were decreasing. The apparent λz was calculated as the negative slope of the log-linear terminal portion of the blood concentration-time curve using linear regression. To allow for accurate calculation of λz, a minimum of three observations, selected by WinNonlin, was used. The t½ was calculated as ln 2/λz. AUC0-t was extrapolated to infinity (AUC0-∞) as follows: AUC0-∞=AUC0-t+Clast/λz where Clast is the last quantifiable concentration. The apparent oral clearance (CL/F) was calculated as Dose/AUC0-∞. The apparent oral volume of distribution (Vz/F) was calculated as Dose/λz×AUC0-∞. The mean residence time from time zero to infinity (MRT0-∞) was calculated as AUMC0-∞/AUC0-∞."}, "[2]": {"experiment": "13-week mouse toxicity and toxicokinetic study", "conditions": "Crl:CD-1(ICR) BR, in vivo, 0 day", "method": "For toxicology assessment ten mice of each gender were placed in each group.\nOphthalmic examinations were performed during Weeks −1 and 12."}, "[3]": {"conditions": "single oral 300 mg DOV 21,947 HCl IR"}, "[4]": {"conditions": "single oral 450 mg DOV 21,947 HCl IR"}}, "note": "Several values for one entry are separate records, joined by “and”; a condition that tells them apart may be missing. Equal values may be shown once.", "data": [{"smiles": "O=C1NCC2(c3ccc(Cl)c(Cl)c3)CC12", "note": "(stereo not shown) [EB-10101, 5-(3,4-dichloro-phenyl)-3-aza-bicyclo[3.1.0]hexan-2-one]", "values": [{"measurement": "concentration at 3 h", "setting": "[1]; female, human, 450 mg", "result": 1650, "unit": "ng/mL"}, {"measurement": "concentration at 4 h", "setting": "[1]; female, human, 450 mg", "result": 2180, "unit": "ng/mL"}, {"measurement": "concentration at 6 h", "setting": "[1]; female, human, 450 mg", "result": 2710, "unit": "ng/mL"}, {"measurement": "concentration at 8 h", "setting": "[1]; female, human, 450 mg", "result": 2990, "unit": "ng/mL"}, {"measurement": "concentration at 10 h", "setting": "[1]; female, human, 450 mg", "result": 3030, "unit": "ng/mL"}, {"measurement": "concentration at 12 h", "setting": "[1]; female, human, 450 mg", "result": 2930, "unit": "ng/mL"}, {"measurement": "concentration at 18 h", "setting": "[1]; female, human, 450 mg", "result": 2140, "unit": "ng/mL"}, {"measurement": "concentration at 24 h", "setting": "[1]; female, human, 450 mg", "result": 2390, "unit": "ng/mL"}, {"measurement": "concentration at […]", "setting": "[1]; female, human, 450 mg", "result": "0 ng/mL and 155 ng/mL and 539 ng/mL and 660 ng/mL"}, {"measurement": "half-life", "setting": "[1]; female, human, 450 mg, t½ (Harmonic mean), single oral 450 mg DOV 21,947 HCl IR, N = 5", "result": 24.5, "unit": "h"}, {"measurement": "half-life", "setting": "[1]; female, human, 450 mg, t½, single oral 450 mg DOV 21,947 HCl IR, N = 5, arithmetic mean", "result": 41.8, "unit": "h"}, {"measurement": "exposure to lactam greater than parent drug over 24 hr", "setting": "[1]; human, in vivo", "result": "approximately 70%"}, {"measurement": "AUC(0-t)", "setting": "[1]; male, human, 300 mg", "result": 29200, "unit": "ng·h/mL"}, {"measurement": "Cmax", "setting": "[1]; male, human, 300 mg", "result": 1740, "unit": "ng/mL"}, {"measurement": "Tmax", "setting": "[1]; male, human, 300 mg", "result": 6.4, "unit": "h"}, {"measurement": "concentration at 0 h", "setting": "[1]; male, human, 300 mg", "result": 0, "unit": "ng/mL"}, {"measurement": "concentration at 0.5 h", "setting": "[1]; male, human, 300 mg", "result": 62.9, "unit": "ng/mL"}, {"measurement": "concentration at 1 h", "setting": "[1]; male, human, 300 mg", "result": 404, "unit": "ng/mL"}, {"measurement": "concentration at 2 h", "setting": "[1]; male, human, 300 mg", "result": 1040, "unit": "ng/mL"}, {"measurement": "concentration at 3 h", "setting": "[1]; male, human, 300 mg", "result": 1490, "unit": "ng/mL"}, {"measurement": "concentration at 4 h", "setting": "[1]; male, human, 300 mg", "result": 1470, "unit": "ng/mL"}, {"measurement": "concentration at 6 h", "setting": "[1]; male, human, 300 mg", "result": 1520, "unit": "ng/mL"}, {"measurement": "concentration at 8 h", "setting": "[1]; male, human, 300 mg", "result": 1590, "unit": "ng/mL"}, {"measurement": "concentration at 10 h", "setting": "[1]; male, human, 300 mg", "result": 1670, "unit": "ng/mL"}, {"measurement": "concentration at 12 h", "setting": "[1]; male, human, 300 mg", "result": 1410, "unit": "ng/mL"}, {"measurement": "concentration at 18 h", "setting": "[1]; male, human, 300 mg", "result": 1100, "unit": "ng/mL"}, {"measurement": "concentration at 24 h", "setting": "[1]; male, human, 300 mg", "result": 820, "unit": "ng/mL"}, {"measurement": "concentration at […]", "setting": "[1]; male, human, 300 mg", "result": "3.03 ng/mL and 238 ng/mL and 629 ng/mL and 753 ng/mL"}, {"measurement": "half-life", "setting": "[1]; male, human, 300 mg, t½ (Harmonic mean), single oral 300 mg DOV 21,947 HCl IR, N = 5", "result": 13.7, "unit": "h"}, {"measurement": "half-life", "setting": "[1]; male, human, 300 mg, t½, single oral 300 mg DOV 21,947 HCl IR, N = 5, arithmetic mean", "result": 15.3, "unit": "h"}, {"measurement": "AUC(0-t)", "setting": "[1]; male, human, 450 mg", "result": 46100, "unit": "ng·h/mL"}, {"measurement": "Cmax", "setting": "[1]; male, human, 450 mg", "result": 2550, "unit": "ng/mL"}, {"measurement": "Tmax", "setting": "[1]; male, human, 450 mg", "result": 9.2, "unit": "h"}, {"measurement": "concentration at 0 h", "setting": "[1]; male, human, 450 mg", "result": 0, "unit": "ng/mL"}, {"measurement": "concentration at 0.5 h", "setting": "[1]; male, human, 450 mg", "result": 107, "unit": "ng/mL"}, {"measurement": "concentration at 1 h", "setting": "[1]; male, human, 450 mg", "result": 388, "unit": "ng/mL"}, {"measurement": "concentration at 2 h", "setting": "[1]; male, human, 450 mg", "result": 1620, "unit": "ng/mL"}, {"measurement": "concentration at 3 h", "setting": "[1]; male, human, 450 mg", "result": 1980, "unit": "ng/mL"}, {"measurement": "concentration at 4 h", "setting": "[1]; male, human, 450 mg", "result": 2150, "unit": "ng/mL"}, {"measurement": "concentration at 6 h", "setting": "[1]; male, human, 450 mg", "result": 2320, "unit": "ng/mL"}, {"measurement": "concentration at 8 h", "setting": "[1]; male, human, 450 mg", "result": 2360, "unit": "ng/mL"}, {"measurement": "concentration at 10 h", "setting": "[1]; male, human, 450 mg", "result": 2520, "unit": "ng/mL"}, {"measurement": "concentration at 12 h", "setting": "[1]; male, human, 450 mg", "result": 2310, "unit": "ng/mL"}, {"measurement": "concentration at 18 h", "setting": "[1]; male, human, 450 mg", "result": 1880, "unit": "ng/mL"}, {"measurement": "concentration at 24 h", "setting": "[1]; male, human, 450 mg", "result": 1450, "unit": "ng/mL"}, {"measurement": "concentration at […]", "setting": "[1]; male, human, 450 mg", "result": "0 ng/mL and 214 ng/mL and 752 ng/mL and 954 ng/mL"}, {"measurement": "half-life", "setting": "[1]; male, human, 450 mg, t½ (Harmonic mean), single oral 450 mg DOV 21,947 HCl IR, N = 5", "result": 16.6, "unit": "h"}, {"measurement": "half-life", "setting": "[1]; male, human, 450 mg, t½, single oral 450 mg DOV 21,947 HCl IR, N = 5, arithmetic mean", "result": 23.4, "unit": "h"}, {"measurement": "λz", "setting": "[1]; single oral 300 mg DOV 21,947 HCl IR, Female, N = 5", "result": "0.046^b hr^−1"}, {"measurement": "λz", "setting": "[1]; single oral 300 mg DOV 21,947 HCl IR, Male, N = 5", "result": 0.051, "unit": "h⁻¹"}, {"measurement": "Percent of Dose in Urine (0-24 hr)", "setting": "[1]; [3]", "result": "0.075 (0.024) Percent of Dose"}, {"measurement": "Ratio DOV 216,298/DOV 21,947 in urine (0-24 hr)", "setting": "[1]; [3]", "result": "0.195 (0.092)"}, {"measurement": "Mean Amount in Urine", "setting": "[1]; single oral 300 mg DOV 21,947 HCl IR, Period 0-1 hr", "result": 0.0, "unit": "µg"}, {"measurement": "Mean Amount in Urine", "setting": "[1]; single oral 300 mg DOV 21,947 HCl IR, Period 1-2 hr", "result": 2.7, "unit": "µg"}, {"measurement": "Mean Amount in Urine", "setting": "[1]; single oral 300 mg DOV 21,947 HCl IR, Period 2-4 hr", "result": 52.5, "unit": "µg"}, {"measurement": "Mean Amount in Urine", "setting": "[1]; single oral 300 mg DOV 21,947 HCl IR, Period 4-8 hr", "result": 56.2, "unit": "µg"}, {"measurement": "Mean Amount in Urine", "setting": "[1]; single oral 300 mg DOV 21,947 HCl IR, Period 8-12 hr", "result": 34.8, "unit": "µg"}, {"measurement": "Mean Amount in Urine", "setting": "[1]; single oral 300 mg DOV 21,947 HCl IR, Period 12-24 hr", "result": 47.8, "unit": "µg"}, {"measurement": "Mean Amount in Urine", "setting": "[1]; single oral 300 mg DOV 21,947 HCl IR, Total (0-24 hr)", "result": 194, "unit": "µg"}, {"measurement": "λz", "setting": "[1]; single oral 300 mg DOV 21,947 HCl IR, mean, N = 10", "result": "0.049^b hr^−1"}, {"measurement": "λz", "setting": "[1]; single oral 450 mg DOV 21,947 HCl IR, Female, N = 5", "result": 0.028, "unit": "h⁻¹"}, {"measurement": "λz", "setting": "[1]; single oral 450 mg DOV 21,947 HCl IR, Male, N = 5", "result": 0.042, "unit": "h⁻¹"}, {"measurement": "Percent of Dose in Urine (0-24 hr)", "setting": "[1]; [4]", "result": "0.067 (0.035) Percent of Dose"}, {"measurement": "Ratio DOV 216,298/DOV 21,947 in urine (0-24 hr)", "setting": "[1]; [4]", "result": "0.256 (0.173)"}, {"measurement": "Mean Amount in Urine", "setting": "[1]; single oral 450 mg DOV 21,947 HCl IR, Period 0-1 hr", "result": 0.0, "unit": "µg"}, {"measurement": "Mean Amount in Urine", "setting": "[1]; single oral 450 mg DOV 21,947 HCl IR, Period 1-2 hr", "result": 2.1, "unit": "µg"}, {"measurement": "Mean Amount in Urine", "setting": "[1]; single oral 450 mg DOV 21,947 HCl IR, Period 2-4 hr", "result": 45.2, "unit": "µg"}, {"measurement": "Mean Amount in Urine", "setting": "[1]; single oral 450 mg DOV 21,947 HCl IR, Period 4-8 hr", "result": 89.3, "unit": "µg"}, {"measurement": "Mean Amount in Urine", "setting": "[1]; single oral 450 mg DOV 21,947 HCl IR, Period 8-12 hr", "result": 61.2, "unit": "µg"}, {"measurement": "Mean Amount in Urine", "setting": "[1]; single oral 450 mg DOV 21,947 HCl IR, Period 12-24 hr", "result": 63.5, "unit": "µg"}, {"measurement": "Mean Amount in Urine", "setting": "[1]; single oral 450 mg DOV 21,947 HCl IR, Total (0-24 hr)", "result": 261, "unit": "µg"}, {"measurement": "λz", "setting": "[1]; single oral 450 mg DOV 21,947 HCl IR, mean, N = 10", "result": 0.035, "unit": "h⁻¹"}, {"measurement": "exposure to metabolite relative to parent drug", "setting": "[2]", "result": "2-5 fold"}]}]}
